Test results as given in the NIST ThermoML archive (doi:10.1021/je800110r).
± gives the expanded uncertainty stated by the source.

Conditions: 313.14 K, Liquid, Vibrating tube method

CCCCCCCCCC [decane]
Conditions	mass density [kg/m3]
15552 kPa	727.4 ± 2
15582 kPa	727.2 ± 2
15613 kPa	727.3 ± 2
15637 kPa	727.3 ± 2
15663 kPa	727.3 ± 2
15908 kPa	727.6 ± 2
15941 kPa	727.5 ± 2
15972 kPa	727.6 ± 2
16007 kPa	727.6 ± 2
16031 kPa	727.6 ± 2
16067 kPa	727.7 ± 2
16091 kPa	727.6 ± 2
16114 kPa	727.7 ± 2
16151 kPa	727.8 ± 2
16180 kPa	727.7 ± 2
16204 kPa	727.8 ± 2
16241 kPa	727.8 ± 2
16273 kPa	727.8 ± 2
16306 kPa	727.9 ± 2
16338 kPa	727.9 ± 2
16359 kPa	727.8 ± 2
16381 kPa	727.9 ± 2
16402 kPa	728 ± 2
16427 kPa	727.9 ± 2
16452 kPa	727.9 ± 2
16478 kPa	728 ± 2
16507 kPa	728 ± 2
16537 kPa	728 ± 2
16566 kPa	728 ± 2
16587 kPa	728 ± 2
16618 kPa	728.1 ± 2
16648 kPa	728.1 ± 2
16683 kPa	728.1 ± 2
16721 kPa	728.2 ± 2
16748 kPa	728.1 ± 2
16784 kPa	728.2 ± 2
16824 kPa	728.1 ± 2
16860 kPa	728.2 ± 2
16883 kPa	728.2 ± 2
16907 kPa	728.3 ± 2
16935 kPa	728.3 ± 2
16975 kPa	728.4 ± 2
16996 kPa	728.4 ± 2
17023 kPa	728.3 ± 2
17046 kPa	728.4 ± 2
17070 kPa	728.3 ± 2
17101 kPa	728.4 ± 2
17124 kPa	728.5 ± 2
17149 kPa	728.5 ± 2
17170 kPa	728.4 ± 2
17191 kPa	728.4 ± 2
17222 kPa	728.6 ± 2
17243 kPa	728.6 ± 2
17264 kPa	728.5 ± 2
17296 kPa	728.6 ± 2
17320 kPa	728.5 ± 2
17348 kPa	728.5 ± 2
17377 kPa	728.5 ± 2
17408 kPa	728.6 ± 2
17430 kPa	728.7 ± 2
17455 kPa	728.7 ± 2
17481 kPa	728.6 ± 2
17502 kPa	728.8 ± 2
17528 kPa	728.7 ± 2
17557 kPa	728.8 ± 2
17609 kPa	728.8 ± 2
17763 kPa	728.9 ± 2
17790 kPa	728.9 ± 2
17820 kPa	729 ± 2
17842 kPa	729 ± 2
17877 kPa	729.1 ± 2
17905 kPa	729 ± 2
17931 kPa	729.1 ± 2
17958 kPa	729 ± 2
17988 kPa	729.1 ± 2
18011 kPa	729.1 ± 2
18042 kPa	729.1 ± 2
18062 kPa	729.2 ± 2
18096 kPa	729.1 ± 2
18131 kPa	729.2 ± 2
18170 kPa	729.2 ± 2
18202 kPa	729.2 ± 2
18226 kPa	729.2 ± 2
18249 kPa	729.2 ± 2
18273 kPa	729.3 ± 2
18301 kPa	729.3 ± 2
18325 kPa	729.4 ± 2
18346 kPa	729.4 ± 2
18374 kPa	729.4 ± 2
18403 kPa	729.5 ± 2
18439 kPa	729.3 ± 2
18460 kPa	729.4 ± 2
18494 kPa	729.4 ± 2
18522 kPa	729.5 ± 2
18544 kPa	729.6 ± 2
18569 kPa	729.5 ± 2
18600 kPa	729.6 ± 2
18628 kPa	729.5 ± 2
18646 kPa	729.5 ± 2
18671 kPa	729.5 ± 2
18697 kPa	729.6 ± 2
18722 kPa	729.5 ± 2
18748 kPa	729.6 ± 2
18781 kPa	729.6 ± 2
18812 kPa	729.7 ± 2
18842 kPa	729.7 ± 2
18869 kPa	729.7 ± 2
18894 kPa	729.8 ± 2
18927 kPa	729.8 ± 2
18953 kPa	729.7 ± 2
18979 kPa	729.8 ± 2
19001 kPa	729.8 ± 2
19027 kPa	729.8 ± 2
19054 kPa	729.8 ± 2
19076 kPa	729.8 ± 2
19102 kPa	729.9 ± 2
19133 kPa	729.9 ± 2
19152 kPa	730 ± 2
19187 kPa	730 ± 2
19210 kPa	729.9 ± 2
19237 kPa	729.9 ± 2
19256 kPa	730 ± 2
19287 kPa	730.1 ± 2
19326 kPa	730 ± 2
19353 kPa	730 ± 2
19380 kPa	730.1 ± 2
19412 kPa	730.1 ± 2
19441 kPa	730.2 ± 2
19466 kPa	730.2 ± 2
19487 kPa	730.2 ± 2
19512 kPa	730.2 ± 2
19546 kPa	730.2 ± 2
19564 kPa	730.2 ± 2
19582 kPa	730.2 ± 2
19606 kPa	730.3 ± 2
19634 kPa	730.2 ± 2
19655 kPa	730.3 ± 2
19686 kPa	730.3 ± 2
19711 kPa	730.4 ± 2
19727 kPa	730.4 ± 2
19745 kPa	730.4 ± 2
19773 kPa	730.4 ± 2
19804 kPa	730.3 ± 2
19823 kPa	730.5 ± 2
19848 kPa	730.4 ± 2
19867 kPa	730.5 ± 2
19889 kPa	730.5 ± 2
19908 kPa	730.5 ± 2
19940 kPa	730.5 ± 2
19959 kPa	730.6 ± 2
19985 kPa	730.5 ± 2
20008 kPa	730.6 ± 2
20028 kPa	730.6 ± 2
20055 kPa	730.6 ± 2
20074 kPa	730.5 ± 2
20097 kPa	730.6 ± 2
20126 kPa	730.4 ± 2
20150 kPa	730.6 ± 2
20172 kPa	730.7 ± 2
20205 kPa	730.7 ± 2
20221 kPa	730.7 ± 2
20238 kPa	730.8 ± 2
20257 kPa	730.7 ± 2
20287 kPa	730.8 ± 2
20308 kPa	730.7 ± 2
20329 kPa	730.8 ± 2
20385 kPa	730.8 ± 2
20430 kPa	730.9 ± 2
20460 kPa	730.9 ± 2
20488 kPa	730.9 ± 2
20511 kPa	731 ± 2
20535 kPa	730.9 ± 2
20586 kPa	731 ± 2
20611 kPa	731 ± 2
20632 kPa	730.9 ± 2
20663 kPa	731.1 ± 2
20687 kPa	731.1 ± 2
20708 kPa	731 ± 2
20732 kPa	731.2 ± 2
20767 kPa	731.1 ± 2
20791 kPa	731.2 ± 2
20819 kPa	731.1 ± 2
20850 kPa	731.2 ± 2
20872 kPa	731.1 ± 2
20900 kPa	731.1 ± 2
20932 kPa	731.4 ± 2
21014 kPa	731.3 ± 2
21046 kPa	731.3 ± 2
21075 kPa	731.3 ± 2
21144 kPa	731.3 ± 2
21163 kPa	731.4 ± 2
21200 kPa	731.3 ± 2
21226 kPa	731.6 ± 2
21308 kPa	731.5 ± 2
21387 kPa	731.5 ± 2
21414 kPa	731.7 ± 2
21440 kPa	731.6 ± 2
21471 kPa	731.6 ± 2
21495 kPa	731.7 ± 2
21516 kPa	731.6 ± 2
21536 kPa	731.6 ± 2
21563 kPa	731.7 ± 2
21597 kPa	731.7 ± 2
21621 kPa	731.6 ± 2
21642 kPa	731.8 ± 2
21663 kPa	731.8 ± 2
21686 kPa	731.8 ± 2
21728 kPa	731.9 ± 2
21752 kPa	731.8 ± 2
21771 kPa	731.8 ± 2
21827 kPa	731.8 ± 2
21852 kPa	731.9 ± 2
21883 kPa	731.9 ± 2
21911 kPa	731.9 ± 2
21932 kPa	731.9 ± 2
21953 kPa	731.9 ± 2
21985 kPa	731.9 ± 2
22006 kPa	731.9 ± 2
22034 kPa	732 ± 2
22060 kPa	732.1 ± 2
22083 kPa	732.1 ± 2
22115 kPa	732 ± 2
22140 kPa	732.1 ± 2
22165 kPa	732 ± 2
22198 kPa	732.2 ± 2
22216 kPa	732 ± 2
22245 kPa	732.2 ± 2
22263 kPa	732.1 ± 2
22292 kPa	732.2 ± 2
22321 kPa	732.2 ± 2
22348 kPa	732.2 ± 2
22374 kPa	732.2 ± 2
22400 kPa	732.2 ± 2
22426 kPa	732.3 ± 2
22522 kPa	732.3 ± 2
22577 kPa	732.3 ± 2
22645 kPa	732.5 ± 2
22672 kPa	732.5 ± 2
22699 kPa	732.4 ± 2
22729 kPa	732.6 ± 2
22756 kPa	732.5 ± 2
22794 kPa	732.6 ± 2
22828 kPa	732.6 ± 2
22855 kPa	732.6 ± 2
22882 kPa	732.5 ± 2
22904 kPa	732.6 ± 2
22939 kPa	732.7 ± 2
23398 kPa	733 ± 2
23435 kPa	732.9 ± 2
23468 kPa	732.9 ± 2
23492 kPa	733 ± 2
23529 kPa	733 ± 2
23554 kPa	733 ± 2
23579 kPa	733.1 ± 2
23611 kPa	733.2 ± 2
23636 kPa	733 ± 2
23669 kPa	733.1 ± 2
23699 kPa	733.2 ± 2
23732 kPa	733.2 ± 2
23758 kPa	733.2 ± 2
23792 kPa	733.3 ± 2
23821 kPa	733.4 ± 2
23851 kPa	733.2 ± 2
23873 kPa	733.2 ± 2
23894 kPa	733.3 ± 2
23923 kPa	733.4 ± 2
23954 kPa	733.4 ± 2.1
23992 kPa	733.4 ± 2.1
24027 kPa	733.4 ± 2.1
24054 kPa	733.4 ± 2.1
24081 kPa	733.5 ± 2.1
24116 kPa	733.5 ± 2.1
24142 kPa	733.4 ± 2.1
